From patent publication US20240226048A1, “METHODS OF TREATMENT USING BEMPEDOIC ACID” (Esperion Therapeutics, Inc., priority 2023, published 2024)

Assay: CLEAR OUTCOMES trial: time-to-event cardiovascular efficacy end points
Type: in vivo, human
Conditions: for Primary efficacy endpoint (MACE-4), Hazard Ratio (95% CI): Cox proportional hazards, P 0.004; for Fatal and non-fatal MI, Hazard Ratio (95% CI): P 0.002; for 3-component MACE, Hazard Ratio (95% CI): P 0.006
Source text: The CLEAR OUTCOMES trial was a randomized, placebo-controlled, double-blind trial that enrolled patients at 1250 sites in 32 countries. An independent Data Monitoring Committee reviewed safety and efficacy data during the trial.
Patients 18 to 85 years of age were eligible for enrollment if they met either of two criteria for increased cardiovascular risk, a prior cardiovascular event (secondary prevention) or clinical features that placed them at high risk for a cardiovascular event (primary prevention). (Nicholls S, Lincoff A M, Bays H E, et al. Rationale and design of the CLEAR-outcomes trial: Evaluating the effect of bempedoic acid on cardiovascular events in patients with statin intolerance. Am Heart J. 2021 May; 235: 104-112) All patients provided written informed consent. Patients had to report statin intolerance due to an adverse effect that started or increased during statin therapy and resolved or improved after statin therapy was discontinued. Patients could be enrolled if they tolerated a very low average daily statin dose (e.g., an average daily dose of rosuvastatin <5 mg, atorvastatin <10 mg, simvastatin <10 mg, lovastatin <20 mg, pravastatin <40 mg, fluvastatin <40 mg, or pitavastatin <2 mg). Other lipid-lowering therapies were permitted, including ezetimibe, niacin, bile acid resins, fibrates, and/or proprotein convertase subtilisin kexin type 9 (PCSK9) inhibitors. Full inclusion and exclusion criteria are provided in Nicholls et al. (Am Heart J. 2021).
Eligible patients entered a 4-week run-in period during which patients were treated with single-blind placebo. If patients were intolerant to placebo treatment or if adherence was <80% by tablet count, they were not eligible for randomization. Patients who successfully completed the run-in period were randomly assigned in a 1:1 ratio to receive bempedoic acid at an oral dose of 180 mg or matching placebo, administered daily. Beginning 6 months after enrollment, the central laboratory notified the investigator if the patient's LDL-cholesterol level was ≥25% higher than baseline. These patients were counseled on healthy dietary guidelines and reminded to take all lipid-regulating medications. If repeat testing confirmed that LDL-cholesterol value met the threshold criteria, the provider could adjust the lipid-lowering treatment regimen per standard of care and local guidelines.
The primary end point was the first occurrence of a composite of death from cardiovascular causes, nonfatal myocardial infarction (MI), nonfatal stroke, or coronary revascularization. The first key secondary end point was time to the first occurrence of the composite of cardiovascular death, nonfatal stroke or MI. Further key secondary end points included time to first occurrence of each of the following outcomes tested in hierarchical order, fatal or nonfatal MI, coronary revascularization, fatal or nonfatal stroke, death from cardiovascular causes, and all-cause mortality.
This was an event-driven trial designed to provide at least 90% power to detect a 15% relative risk reduction for the primary composite end point at an overall two-sided significance level of 0.05. The trial required a minimum of 1620 primary composite events with >24 months of follow-up for all patients and at least 810 first key secondary end points. The average treatment duration was estimated to be 42 months and a lost-to-follow-up rate of 1% per year. Assuming a 3.59% annual event rate in the placebo group, enrollment of 12,600 patients was required, subsequently amended to 14,000. There were no interim efficacy analyses. A hierarchical approach was prespecified to evaluate sequentially each of the six key secondary efficacy end points with statistical significance at each step required to test the next hypothesis, thereby preserving the study-wise Type I error rate at 5%. All analyses were based on the intent-to-treat principle. […]

[1] = prespecified subgroup, interaction P=0.03
[2] = vs placebo, listed as bempedoic acid

CC(C)(CCCCCC(O)CCCCCC(C)(C)C(=O)O)C(=O)O [Bempedoic Acid, Bempedoic acid]
3-component MACE, % of patients (180 mg oral daily, N = 6992): 8.2% | 5 component MACE, % of patients (180 mg oral daily, N = 6992): 11.9% | All-cause mortality, % of patients (180 mg oral daily, N = 6992): 6.2% | All-cause mortality, nonfatal MI, nonfatal stroke, or coronary revascularization, % of patients (180 mg oral daily, N = 6992): 13.8% | All-cause mortality, nonfatal MI, nonfatal stroke, or coronary revascularization, number of patients (180 mg oral daily, N = 6992): 962 number of patients | All-cause mortality, number of patients (180 mg oral daily, N = 6992): 434 number of patients | Coronary revascularization, % of patients (180 mg oral daily, N = 6992): 6.2% | Coronary revascularization, number of patients (180 mg oral daily, N = 6992): 435 number of patients | Death from cardiovascular causes, % of patients (180 mg oral daily, N = 6992): 3.8% | Death from cardiovascular causes, number of patients (180 mg oral daily, N = 6992): 269 number of patients | Fatal MI, % of patients (180 mg oral daily, N = 6992): 0.4% | Fatal MI, number of patients (180 mg oral daily, N = 6992): 29 number of patients | Fatal and non-fatal MI, % of patients (180 mg oral daily, N = 6992): 3.7% | Fatal and non-fatal MI, number of patients (180 mg oral daily, N = 6992): 261 number of patients | Fatal and non-fatal stroke, % of patients (180 mg oral daily, N = 6992): 1.9% | Fatal and non-fatal stroke, number of patients (180 mg oral daily, N = 6992): 135 number of patients | Fatal and nonfatal hemorrhagic stroke, % of patients (180 mg oral daily, N = 6992): 0.3% | Fatal and nonfatal hemorrhagic stroke, number of patients (180 mg oral daily, N = 6992): 20 number of patients | Fatal and nonfatal non-hemorrhagic stroke, % of patients (180 mg oral daily, N = 6992): 1.7% | Fatal and nonfatal non-hemorrhagic stroke, number of patients (180 mg oral daily, N = 6992): 118 number of patients | Fatal stroke, % of patients (180 mg oral daily, N = 6992): 0.3% | Fatal stroke, number of patients (180 mg oral daily, N = 6992): 18 number of patients | Hospitalization for unstable angina, % of patients (180 mg oral daily, N = 6992): 1.3% | Hospitalization for unstable angina, number of patients (180 mg oral daily, N = 6992): 91 number of patients | Non-fatal MI, % of patients (180 mg oral daily, N = 6992): 3.4% | Non-fatal MI, number of patients (180 mg oral daily, N = 6992): 236 number of patients | Non-fatal stroke, % of patients (180 mg oral daily, N = 6992): 1.7% | Non-fatal stroke, number of patients (180 mg oral daily, N = 6992): 119 number of patients | Primary efficacy endpoint (MACE-4), % of patients (180 mg oral daily, N = 6992, median follow-up 40.6 months): 11.7% | 5 component MACE, number of patients (MACE-4 or hospitalization for unstable angina (MACE-5), 180 mg oral daily, N = 6992): 831 number of patients | effect on other key secondary end points: time to first occurrence of stroke, death from cardiovascular causes, all-cause mortality (compared with placebo): no significant effects | Primary efficacy endpoint (MACE-4), number of patients (death from cardiovascular causes, nonfatal MI, nonfatal stroke, or coronary revascularization, 180 mg oral daily, N = 6992, median follow-up 40.6 months): 819 number of patients | 3-component MACE, number of patients (death from cardiovascular causes, nonfatal MI, or nonfatal stroke (MACE-3), 180 mg oral daily, N = 6992): 575 number of patients | New-onset type 2 diabetes mellitus, number of patients (n/N in patients with baseline glycemic status of no diabetes, 180 mg oral daily): 429/3848 | New-onset type 2 diabetes mellitus, % of patients (patients with baseline glycemic status of no diabetes, 180 mg oral daily): (11.1) % | HR for the primary end point, primary prevention population [1]: 0.68 | HR for the primary end point, secondary prevention population [1]: 0.91 | 5 component MACE, Hazard Ratio (95% CI) (vs placebo): 0.86 (0.78-0.94) | All-cause mortality, Hazard Ratio (95% CI) (vs placebo): 1.03 (0.90-1.18) | All-cause mortality, nonfatal MI, nonfatal stroke, or coronary revascularization, Hazard Ratio (95% CI) (vs placebo): 0.89 (0.82-0.97) | Death from cardiovascular causes, Hazard Ratio (95% CI) (vs placebo): 1.04 (0.88-1.24) | Fatal MI, Hazard Ratio (95% CI) (vs placebo): 1.38 (0.79-2.42) | Fatal and non-fatal stroke, Hazard Ratio (95% CI) (vs placebo): 0.85 (0.67-1.07) | Fatal and nonfatal hemorrhagic stroke, Hazard Ratio (95% CI) (vs placebo): 2.21 (1.01-4.85) | Fatal and nonfatal non-hemorrhagic stroke, Hazard Ratio (95% CI) (vs placebo): 0.78 (0.61-0.99) | Fatal stroke, Hazard Ratio (95% CI) (vs placebo): 1.12 (0.57-2.20) | Hospitalization for unstable angina, Hazard Ratio (95% CI) (vs placebo): 0.66 (0.50-0.86) | Non-fatal stroke, Hazard Ratio (95% CI) (vs placebo): 0.82 (0.64-1.05) | reduction in coronary revascularization (vs placebo): 19% | reduction in the composite of death from cardiovascular causes, stroke or MI (vs placebo): 15% | reduction in the incidence of fatal or nonfatal MI (vs placebo): 23% | reduction in the primary composite end point (death from cardiovascular causes, stroke, MI, or coronary revascularization) (vs placebo): 13% | Primary efficacy endpoint (MACE-4), Hazard Ratio (95% CI) (vs placebo): 0.87 (0.79-0.96) | Primary efficacy endpoint (MACE-4), Hazard Ratio (95% CI) [2]: 0.87 | Coronary revascularization, Hazard Ratio (95% CI) (vs placebo, P 0.001): 0.81 | Fatal and non-fatal MI, Hazard Ratio (95% CI) (vs placebo): 0.77 (0.66-0.91) | Fatal and non-fatal MI, Hazard Ratio (95% CI) [2]: 0.77 | 3-component MACE, Hazard Ratio (95% CI) (vs placebo): 0.85 (0.76-0.96) | 3-component MACE, Hazard Ratio (95% CI) [2]: 0.85 | New-onset type 2 diabetes mellitus, Hazard Ratio (95% CI) (vs placebo, patients with no diabetes at baseline): 0.95 (0.83-1.09)
